The source of these data is patent US6147095A (priority 1999, dated 2000).

For data set [1], the system named is HIV. The note with it: reported for tipranavir; cited from earlier work.
The nature of data set [2]: clinical. The note with it: human, in vivo, po, CLPO (oral clearance). Here is the method: (§1) Baseline pharmacokinetic data for each drug were obtained under pharmacokinetic steady-state conditions following 7 days of dosing. Each drug was then co-administered for 10 days, at which time the pharmacokinetics of each was re-evaluated and compared with baseline data. […] All subjects were Caucasian. […] Pharmacokinetic analyses were based on results obtained in these subjects.
Detection was by UV absorbance at 260 nm.
(§2) Treatment effects on pharmacokinetic parameters were assessed using Wilcoxon's Signed Rank Test.

The subject of data set [3] is CYP3A. Description: Enzyme induction. The note with it: previous studies / in vitro and in vivo data.
For data set [4] the following is noted: human, in vivo.
Description: A pharmacokinetic profile was obtained under steady-state conditions following 7 days of dosing. […] Forty-four subjects were Caucasian, 2 were Black, and 2 were Asian.
An aliquot (0.150 mL) was initially injected onto a short Zorbax® RX-C8 column which was connected via a column switching valve to the analytical column, Zorbax® RX-C8 column. The mobile phase was composed of acetonitrile:methanol:0.1% TFA in water, (40:35:25, v/v). Detection was by UV absorbance at 260 nm.
(§3) Pharmacokinetic parameters such as AUC, Cmax, tmax, oral clearance, and terminal half-life, were determined using standard noncompartmental techniques.
The conditions of data set [5]: human, in vivo. Here is the method:
The drugs were then coadministered for 10 days, after which the pharmacokinetics of each were re-evaluated and compared with baseline data. The study was conducted in 14 healthy volunteers (13 males and 1 female) with a mean age of 29.9 years (range, 21.3-43.9 years), height of 174.4 cm (range, 162.6-185.4 cm), and weight of 76.5 kg (range, 65.1-88.2 kg). Twelve subjects were Caucasian and two were of African descent. Ten subjects completed all aspects of the study. Pharmacokinetic analyses were based on the results obtained in these subjects. […] Detection was by UV absorbance at 260 nm.
This is another data set of the same source.

The conditions of data set [6]: Table 1; cited from earlier work.
A short description of data set [7]: Tipranavir drug-drug interaction potential (Table 1). The following applies: with tipranavir.
For data set [8] the following is noted: cited from earlier work.
Data set [9] has as its system CYP3A. The following applies: cited from earlier work.
For data set [10] the following is noted: human, in vivo. Here is the method:
as §1
Plasma samples were assayed for delavirdine concentrations using a validated, sensitive and specific isocratic high performance liquid chromatographic (HPLC) method: one for the upper concentration range, and one for the lower concentration range. […] The supernatant was mixed with buffer and directly injected. Chromatographic separation was achieved using a Brownlee cyano guard column and an analytical column, DuPont Zorbax® SB CN.
as §2
This is another data set of the same source.

Data set [11] relates to CYP3A. The note with it: delavirdine 200, 300, and 400 mg TID, HIV-1 infected patients, serial erythromycin breath tests; cited from earlier work.
Data set [12] deals with cytochrome P450 3A (CYP3A). The note with it: known property; cited from earlier work.
The subject of data set [13] is CYP3A. The following applies: Table 1; cited from earlier work.
Data set [14] in a line: clinical. Format: in vivo, human. The text has this:
The drugs were then coadministered for 10 days, after which the pharmacokinetics of each were re-evaluated and compared with baseline data. […] Twelve subjects were Caucasian and two were of African descent. Ten subjects completed all aspects of the study. Pharmacokinetic analyses were based on the results obtained in these subjects. […] Ritonavir and the internal standard (IS) were extracted from human plasma by liquid-liquid extraction with an ethyl acetate mixture.

Data set [15] in a line: Example 4: pharmacokinetics of ritonavir oral solution with tipranavir SEDDS in healthy volunteers.
Description: (§4) A pharmacokinetic profile was obtained under steady-state conditions following 7 days of dosing.
(§5) After elution from the SPE, a C-18AR analytical column was used to perform the chromatographic separation: the mobile phase was a gradient of methanol and 25 mM ammonium acetate. […] Retention times were approximately 1.5 minutes.
as §3
The conditions of data set [16]: human, in vivo. The source holds these as a separate data set.
Description: as §4, §5, §3
Data set [17] can be described thus: Study 2: pharmacokinetics of ritonavir co-administered with tipranavir in healthy volunteers. Format: in vivo, human. Here is the method:
Both groups received their assigned dose of tipranavir continuously throughout the study period. […] The pharmacokinetics of tipranavir when coadministered with ritonavir were evaluated and compared with baseline data, while the ritonavir data were compared to historical data. The study was conducted in 19 healthy volunteers (16 males and 3 females) with a mean age of 30 years (range, 19-52 years), height of 177.1 cm (range, 162.6-190.5 cm), and weight of 76.7 kg (range, 57.3-95.0 kg). Eighteen subjects were Caucasian […]. […] Pharmacokinetic analyses were based on those subjects completing the baseline evaluation and at least one period of concomitant drug administration. […] Ritonavir and the internal standard (IS) were extracted from human plasma by liquid-liquid extraction with an ethyl acetate mixture.

Where [18] appears, read: 200 mg BID with tipranavir 1250 mg BID vs ritonavir 500 mg BID alone.

“Also recorded” adds a separate entry of the source. Read-outs that look alike come from different tables or passages of the source.

In general, IC90 refers to the point of the concentration-response curve where the effect stands at 90%. By CL/F is commonly meant clearance divided by bioavailability, as obtained after extravascular dosing. For `CCC[C@@]1(CCc2ccccc2)CC(O)=C([C@H](CC)c2cccc(NS(=O)(=O)c3ccc(C(F)(F)F)cn3)c2)C(=O)O1` (relative stereo) [Tipranavir, [R-(R*,R*)]-N-[3-[1-[5,6-Dihydro-4-hydroxy-2-oxo-6-(2-phenylethyl)-6-propyl-2H-pyran-3-yl]propyl]phenyl]-5-(trifluoromethyl)-2-pyridinesulfonamide], in [1], the IC90 was 1 µM. This compound also showed a CL/F in data set [2] of 468 mL/min. In addition, the “enzyme induction by tipranavir” value in data set [3] is “induces its own metabolism over a wide dosage range; also recorded: enzyme inducer”. Also, the “CLPO (oral clearance)” value in data set [4] is 12.7 (6.1-23.7) L/h. In addition, the “effect on apparent terminal half-life” value in data set [4] (po) was “not significantly affected by ritonavir”. In addition, the “effect on elimination half-life (t1/2)” value in data set [5] is “not accompanied by a prolongation of the elimination half-life”.

On to `Nc1ccn([C@@H]2CS[C@H](CO)O2)c(=O)n1` [3TC], for which the “Principal Route(s) of Elimination” value in [6] is listed as “Excreted unchanged in urine”.

On to `Cc1cn([C@H]2C[C@H](N=[N+]=[N-])[C@@H](CO)O2)c(=O)[nH]c1=O` [AZT], for which the “Principal Route(s) of Elimination” value in data set [6] is on record as “Conjugation/renal excretion”. For the same compound, the “Potential for Clinically Significant Interaction” value in [7] is on record as “Low”.

For `CC(C)CN(C[C@@H](O)[C@H](Cc1ccccc1)NC(=O)O[C@H]1CCOC1)S(=O)(=O)c1ccc(N)cc1` [Amprenavir], the “decrease of AUC by rifampin” value in data set [8] (Table 1, protease inhibitors) is recorded as ~ 80%. In data set [6], the “Principal Route(s) of Elimination” value is recorded as “CYP3A”. For the same compound, the “Potential for Clinically Significant Interaction” value in data set [7] was “High (and unfavorable)”.

Regarding `CC(C)Nc1cccnc1N1CCN(C(=O)c2cc3cc(NS(C)(=O)=O)ccc3[nH]2)CC1` [Delavirdine], the “inhibition of CYP3A in vitro” value in data set [9] is “non-competitively inhibit CYP3A”. Further, the “delavirdine clearance with rifabutin or rifampin” value in [8] (coadministration of either rifabutin or rifampin) is on record as “marked increase in delavirdine clearance”. For the same compound, the “CLPO (oral clearance)” value in data set [10] was 5.18 (1.5-7.8) L/h. The “inhibition of CYP3A in vivo” value in [11] was “rapid and significant inhibition of CYP3A”. For the same compound, in [12], the “inhibition of CYP3A” value is listed as “inhibits cytochrome P450 monooxygenase (CYP3A)”.

In the case of `O=C1Nc2ccc(Cl)cc2[C@@](C#CC2CC2)(C(F)(F)F)O1` [Efavirenz], in [13], the CYP3A induction entry was “possible CYP3A inducer”.

On to `CC(C)(C)NC(=O)[C@@H]1CN(Cc2cccnc2)CCN1C[C@@H](O)C[C@@H](Cc1ccccc1)C(=O)N[C@H]1c2ccccc2C[C@H]1O` [Indinavir], for which, in data set [8] (Table 1, protease inhibitors), the “decrease of AUC by rifampin” value is ~ 80%.

Turning to `Cc1c(O)cccc1C(=O)N[C@@H](CSc1ccccc1)[C@H](O)CN1C[C@H]2CCCC[C@H]2C[C@H]1C(=O)NC(C)(C)C` [Nelfinavir], the “decrease of AUC by rifampin” value in data set [8] (human, in vivo) was ~ 80%.

`Cc1ccnc2c1NC(=O)c1cccnc1N2C1CC1` [Nevirapine]: in data set [8] (in vivo), the “decrease of nevirapine concentrations by rifampin” value is ~ 40%.

As a reminder, the half-life is the time in which the quantity being followed falls by half. Turning to `CC(C)c1nc(CN(C)C(=O)N[C@H](C(=O)N[C@@H](Cc2ccccc2)C[C@H](O)[C@H](Cc2ccccc2)NC(=O)OCc2cncs2)C(C)C)cs1` [Ritonavir, (2S,3S,5S)-5(N-(N-((N-Methyl-N-((2-isopropyl-4-thiazoly)methyl)amino)carbonyl)-L-valinyl)amino)-2-(N-((5-thiazoly)methoxycarbonyl)amino)-1,6-diphenyl-3-hydroxhexane], in data set [14] (human, in vivo), the “effect on apparent half-life of elimination” value is “shorter apparent half-life of elimination”. In addition, in [14] (human, in vivo, po), the CL/F was 85 mL/min, the “CLPO (oral clearance)” value is recorded as 5.1 (3.9-7.8) L/h and the Tmax is 3.0 (1.0-4.0) h. The compound also showed a half-life in [14] (human, plasma, po, 500 mg) of 2.9 h. The “plasma ritonavir concentrations vs reported values” in data set [14] (ritonavir 500 mg BID alone) is on record as “slightly higher than those reported in HIV-infected patients receiving ritonavir 600 mg doses twice daily”. Further, the “plasma ritonavir concentrations vs published values” in data set [14] (ritonavir 500 mg BID with tipranavir) is given as “lower than published values for ritonavir 300 mg doses administered twice daily to HIV-infected patients”. Further, the “decrease in mean steady-state ritonavir concentrations” value in data set [14] (ritonavir 500 mg BID with tipranavir 1350 mg BID vs alone) was ~5 -fold. Also, in [15] (setting [18]), the “decrease of median ritonavir AUC” value was 12 -fold, the “decrease of median ritonavir Cmax” value was 10 -fold and the “decrease of median ritonavir Cmin” value is listed as 54 -fold. Further, the “ritonavir concentrations in the presence of tipranavir” value in data set [15] (presence of tipranavir) was “greatly decreased”. In data set [16], the “effect on apparent elimination half-life” value was “decreased relative to ritonavir given alone”. The “effect of tipranavir on blood levels of ritonavir” value in data set [17] (Examples 1 and 2) is recorded as “lower blood levels of ritonavir”. The ritonavir concentrations result in data set [17] (co-administration of lowest tipranavir dose tested (600 mg BID)) was “significantly and substantially declined”. In [17] (human, in vivo), the “effect on elimination half-life” value is recorded as “shortening of the elimination hall-life”. The “decrease in steady-state plasma ritonavir concentrations” value in [17] (ritonavir 500 mg BID with tipranavir 600 or 900 mg BID vs ritonavir alone) is ~4 -fold.

`CC(C)(C)NC(=O)[C@@H]1C[C@@H]2CCCC[C@@H]2CN1C[C@@H](O)[C@H](Cc1ccccc1)NC(=O)[C@H](CC(N)=O)NC(=O)c1ccc2ccccc2n1` [Saquinavir]: the “decrease of AUC by rifampin” value in [8] (human, in vivo) is reported as ~ 80%. Further, in data set [7], the “Potential for Clinically Significant Interaction” value is “High (and unfavorable)”.

As to `O=c1[nH]cnc2c1ncn2[C@H]1CC[C@@H](CO)O1` [ddI], in data set [6], the “Principal Route(s) of Elimination” value is “Tubular secretion”. In addition, the “Potential for Clinically Significant Interaction” value in data set [7] is “Low”.
